Data: patent US20020137929A1, “1 - (3-heterocyclylphenyl) isothiourea, -isourea, -guanidine and -amidine herbicidal agents” (Intellectual Property Department, BASF Aktiengesellschaft, priority 1998, published 2002)

Tests used:
ABUTH (Velvetleaf) [1] = experiment: Postemergence herbicidal evaluation; assay type: in vivo, Abutilon theophrasti; details: for ABUTH herbicidal rating: postemergence
How it was run: (§1)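 First, seedlings were raised for around two weeks. Next, test material in 50/50 acetone/water containing 0.5% TWEEN 20 was sprayed through a nozzle at 40 psi, equivalent to about 0.0156–0.500 kg/ha. Finally, after 4–5 weeks in the greenhouse, plants were rated 0–9.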

[2] = tested on: IPOHE (Morningglory, Ivyleaf); experiment: Postemergence herbicidal evaluation; assay type: in vivo, Ipomoea hederacea; details: for IPOHE herbicidal rating: postemergence
How it was run: as §1

SETVI (Foxtail, Green) = experiment: Postemergence herbicidal evaluation; assay type: in vivo, Setaria viridis; details: for SETVI herbicidal rating: postemergence
How it was run: as §1

[3] = tested on: GLXMAW (Soybean, Williams); experiment: Postemergence herbicidal evaluation; assay type: in vivo, Glycine max, (L.) Merr. cv Williams; details: for GLXMAW herbicidal rating: postemergence
How it was run: as §1

ZEAMX (Corn, Field) = experiment: Postemergence herbicidal evaluation; assay type: in vivo, Zea mays; details: for ZEAMX herbicidal rating: postemergence
How it was run: as §1

ABUTH (Velvetleaf) [4] = experiment: Preemergence herbicidal evaluation; assay type: in vivo, Abutilon theophrasti; details: rated 4-5 weeks after treatment; for ABUTH rating: preemergence, 0-9 scale
How it was run: (§2)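 Seeds were mixed with potting soil and planted on about one inch of soil, then sprayed with test compound in aqueous acetone at about 0.0156 to 0.500 kg per hectare. Plants grew under standard greenhouse care and were visually rated 0-9 against untreated controls 4-5 weeks post-treatment.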

AMBEL (Ragweed, Common) = experiment: Preemergence herbicidal evaluation; assay type: in vivo, Ambrosia artemisifolia; details: rated 4-5 weeks after treatment; for AMBEL rating: preemergence, 0-9 scale
How it was run: as §2

CASOB (Sicklepod) = experiment: Preemergence herbicidal evaluation; assay type: in vivo, Cassia obtusifolia; details: rated 4-5 weeks after treatment; for CASOB rating: preemergence, 0-9 scale
How it was run: as §2

[5] = tested on: IPOHE (Morningglory, Ivyleaf); experiment: Preemergence herbicidal evaluation; assay type: in vivo, Ipomoea hederacea; details: rated 4-5 weeks after treatment; for IPOHE rating: preemergence, 0-9 scale
How it was run: as §2

ECHCG (Barnyardgrass) = experiment: Preemergence herbicidal evaluation; assay type: in vivo, Echinochloa crus-galli; details: rated 4-5 weeks after treatment; for ECHCG rating: preemergence, 0-9 scale
How it was run: as §2

[6] = tested on: ECHORC (Watergrass (Calif.)); experiment: Preemergence weed control under flooded paddy conditions; assay type: in vivo, Echinochloa oryzoides; details: rated 3-4 weeks after treatment
How it was run: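 Silt loam, seeds in top 0.5 cm; flood held 1.5-3 cm; test cpd as acetone/water 50/50 into flood water, ~0.0313-0.500 kg/ha a.i.; greenhouse 3-4 wk; visual 0-9 score vs control.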

CYPSE (Flatsedge) = experiment: as above; assay type: in vivo, Cyperus serotinus; details: rated 3-4 weeks after treatment
How it was run: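 Seeds or propagules sown in silt loam kept flooded 1.5-3 cm; compounds in 50/50 acetone/water pipetted into flood water at about 0.0313 to 0.500 kg/ha. Greenhouse; visual 0-9 rating versus untreated control 3-4 weeks after treatment.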

[7] = tested on: ECHORC (Watergrass (Calif.)); experiment: Postemergence weed control under flooded paddy conditions; assay type: in vivo, Echinochloa oryzoides; details: postemergence weeds
How it was run: (§3)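 With weeds 3 to 5 cm tall and rice at the 1.5 to 2.5 leaf stage, containers were flooded and water held 1.5 to 3 cm above soil. Compounds in 50/50 v/v aqueous/acetone went into the flood water at about 0.0313 to 0.500 kg/ha a.i. Effects were visually rated 0–9 against controls after three to four weeks in the greenhouse.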

CYPIR (Rice Flatsedge) = experiment: as above; assay type: in vivo, Cyperus iria; details: postemergence weeds
How it was run: as §3

[8] = Rate 0.0313 kg/ha, rated 3 to 4 weeks after treatment
[9] = Rate 0.0625 kg/ha, rated 3 to 4 weeks after treatment
[10] = Rate 0.1250 kg/ha, rated 3 to 4 weeks after treatment
[11] = Rate 0.2500 kg/ha, rated 3 to 4 weeks after treatment
[12] = rate 0.0313 kg/ha, 3-4 weeks after treatment
[13] = rate 0.0625 kg/ha, 3-4 weeks after treatment
[14] = rate 0.1250 kg/ha, 3-4 weeks after treatment
[15] = rate 0.2500 kg/ha, 3-4 weeks after treatment

## CN1C(=O)C(CC(N)=O)SC1=Nc1cc(-n2c(=O)cc(C(F)(F)F)n(C)c2=O)c(F)cc1Cl (stereo not shown) [Compound 92, 2-{{2-Chloro-5-[3,6-dihydro-3-methyl-2,6-dioxo-4-(trifluoromethyl)-1(2H)-pyrimidinyl]-4-fluorophenyl}imino}-3-methyl-4-oxo-5-thiazolidineacetamide]
ABUTH (Velvetleaf) [1]; rate 0.0158 kg/ha
  ABUTH herbicidal rating: 9.0
ABUTH (Velvetleaf) [1]; rate 0.0315 kg/ha
  ABUTH herbicidal rating: 9.0
ABUTH (Velvetleaf) [1]; rate 0.0630 kg/ha
  ABUTH herbicidal rating: 9.0
[2]; rate 0.0158 kg/ha
  IPOHE herbicidal rating: 9.0
[2]; rate 0.0315 kg/ha
  IPOHE herbicidal rating: 9.0
[2]; rate 0.0630 kg/ha
  IPOHE herbicidal rating: 9.0
SETVI (Foxtail, Green); rate 0.0158 kg/ha
  SETVI herbicidal rating: 0.0
SETVI (Foxtail, Green); rate 0.0315 kg/ha
  SETVI herbicidal rating: 9.0
SETVI (Foxtail, Green); rate 0.0630 kg/ha
  SETVI herbicidal rating: 9.0
[3]; rate 0.0158 kg/ha
  GLXMAW herbicidal rating: 7.5
[3]; rate 0.0315 kg/ha
  GLXMAW herbicidal rating: 9.0
[3]; rate 0.0630 kg/ha
  GLXMAW herbicidal rating: 9.0
ZEAMX (Corn, Field); rate 0.0158 kg/ha
  ZEAMX herbicidal rating: 6.0
ZEAMX (Corn, Field); rate 0.0315 kg/ha
  ZEAMX herbicidal rating: 7.5
ZEAMX (Corn, Field); rate 0.0630 kg/ha
  ZEAMX herbicidal rating: 8.0
ABUTH (Velvetleaf) [4]; 0.0156 kg/ha
  ABUTH rating: 0.0
ABUTH (Velvetleaf) [4]; 0.0313 kg/ha
  ABUTH rating: 3.0
ABUTH (Velvetleaf) [4]; 0.0625 kg/ha
  ABUTH rating: 9.0
ABUTH (Velvetleaf) [4]; 0.1250 kg/ha
  ABUTH rating: 9.0
ABUTH (Velvetleaf) [4]; 0.2500 kg/ha
  ABUTH rating: 9.0
AMBEL (Ragweed, Common); 0.0156 kg/ha
  AMBEL rating: 0.0
AMBEL (Ragweed, Common); 0.0313 kg/ha
  AMBEL rating: 0.0
AMBEL (Ragweed, Common); 0.0625 kg/ha
  AMBEL rating: 0.0
AMBEL (Ragweed, Common); 0.1250 kg/ha
  AMBEL rating: 5.0
AMBEL (Ragweed, Common); 0.2500 kg/ha
  AMBEL rating: 9.0
CASOB (Sicklepod); 0.0156 kg/ha
  CASOB rating: 0.0
CASOB (Sicklepod); 0.0313 kg/ha
  CASOB rating: 0.0
CASOB (Sicklepod); 0.0625 kg/ha
  CASOB rating: 0.0
CASOB (Sicklepod); 0.2500 kg/ha
  CASOB rating: 3.0
[5]; 0.0156 kg/ha
  IPOHE rating: 0.0
[5]; 0.0313 kg/ha
  IPOHE rating: 0.0
[5]; 0.0625 kg/ha
  IPOHE rating: 0.0
[5]; 0.1250 kg/ha
  IPOHE rating: 9.0
[5]; 0.2500 kg/ha
  IPOHE rating: 9.0
ECHCG (Barnyardgrass); 0.0156 kg/ha
  ECHCG rating: 0.0
ECHCG (Barnyardgrass); 0.0313 kg/ha
  ECHCG rating: 0.0
ECHCG (Barnyardgrass); 0.0625 kg/ha
  ECHCG rating: 0.0
ECHCG (Barnyardgrass); 0.1250 kg/ha
  ECHCG rating: 0.0
ECHCG (Barnyardgrass); 0.2500 kg/ha
  ECHCG rating: 0.0
[6]; 0.0313 kg/ha
  ECHORC herbicidal effect rating: 0.0
[6]; 0.0625 kg/ha
  ECHORC herbicidal effect rating: 0.0
[6]; 0.1250 kg/ha
  ECHORC herbicidal effect rating: 2.0
[6]; 0.2500 kg/ha
  ECHORC herbicidal effect rating: 3.0
CYPSE (Flatsedge); 0.0313 kg/ha
  CYPSE herbicidal effect rating: 9.0
CYPSE (Flatsedge); 0.0625 kg/ha
  CYPSE herbicidal effect rating: 9.0
CYPSE (Flatsedge); 0.1250 kg/ha
  CYPSE herbicidal effect rating: 9.0
CYPSE (Flatsedge); 0.2500 kg/ha
  CYPSE herbicidal effect rating: 9.0
[7]; [8]
  Herbicidal rating ECHORC: 0.0
[7]; [9]
  Herbicidal rating ECHORC: 0.0
[7]; [10]
  Herbicidal rating ECHORC: 2.0
[7]; [11]
  Herbicidal rating ECHORC: 3.0
CYPIR (Rice Flatsedge); [8]
  Herbicidal rating CYPIR: 3.0
CYPIR (Rice Flatsedge); [9]
  Herbicidal rating CYPIR: 3.0
CYPIR (Rice Flatsedge); [10]
  Herbicidal rating CYPIR: 5.0
CYPIR (Rice Flatsedge); [11]
  Herbicidal rating CYPIR: 7.0

## CCOC(=O)CN1C(=O)C(CC(=O)OCc2ccccc2)OC1=Nc1cc(-n2c(=O)cc(C(F)(F)F)n(C)c2=O)c(F)cc1Cl (stereo not shown) [Compound 40, 2-{{2-Chloro-5-[3,6-dihydro-3-methyl-2,6-dioxo-4-(trifluoromethyl)-1(2H)-pyrimidinyl]-4-fluorophenyl}imino}-4-oxo-3,5-oxazolidinediacetic acid, 5-benzyl ethyl ester]
ABUTH (Velvetleaf) [1]; Rate 0.0158 kg/ha
  Postemergence herbicidal rating ABUTH: 9.0
ABUTH (Velvetleaf) [1]; Rate 0.0315 kg/ha
  Postemergence herbicidal rating ABUTH: 9.0
ABUTH (Velvetleaf) [1]; Rate 0.0630 kg/ha
  Postemergence herbicidal rating ABUTH: 9.0
[2]; Rate 0.0158 kg/ha
  Postemergence herbicidal rating IPOHE: 9.0
[2]; Rate 0.0315 kg/ha
  Postemergence herbicidal rating IPOHE: 9.0
[2]; Rate 0.0630 kg/ha
  Postemergence herbicidal rating IPOHE: 9.0
SETVI (Foxtail, Green); Rate 0.0158 kg/ha
  Postemergence herbicidal rating SETVI: 1.0
SETVI (Foxtail, Green); Rate 0.0315 kg/ha
  Postemergence herbicidal rating SETVI: 7.0
SETVI (Foxtail, Green); Rate 0.0630 kg/ha
  Postemergence herbicidal rating SETVI: 9.0
[3]; Rate 0.0158 kg/ha
  Postemergence herbicidal rating GLXMAW: 7.0
[3]; Rate 0.0315 kg/ha
  Postemergence herbicidal rating GLXMAW: 9.0
[3]; Rate 0.0630 kg/ha
  Postemergence herbicidal rating GLXMAW: 8.0
ZEAMX (Corn, Field); Rate 0.0158 kg/ha
  Postemergence herbicidal rating ZEAMX: 7.0
ZEAMX (Corn, Field); Rate 0.0315 kg/ha
  Postemergence herbicidal rating ZEAMX: 7.5
ZEAMX (Corn, Field); Rate 0.0630 kg/ha
  Postemergence herbicidal rating ZEAMX: 8.5
ABUTH (Velvetleaf) [4]; rate 0.0313 kg/ha
  Preemergence herbicidal rating ABUTH: 0.0
ABUTH (Velvetleaf) [4]; rate 0.0625 kg/ha
  Preemergence herbicidal rating ABUTH: 6.0
ABUTH (Velvetleaf) [4]; rate 0.1250 kg/ha
  Preemergence herbicidal rating ABUTH: 9.0
ABUTH (Velvetleaf) [4]; rate 0.2500 kg/ha
  Preemergence herbicidal rating ABUTH: 9.0
AMBEL (Ragweed, Common); rate 0.0313 kg/ha
  Preemergence herbicidal rating AMBEL: 0.0
AMBEL (Ragweed, Common); rate 0.0625 kg/ha
  Preemergence herbicidal rating AMBEL: 2.0
AMBEL (Ragweed, Common); rate 0.1250 kg/ha
  Preemergence herbicidal rating AMBEL: 6.0
AMBEL (Ragweed, Common); rate 0.2500 kg/ha
  Preemergence herbicidal rating AMBEL: 6.0
CASOB (Sicklepod); rate 0.0313 kg/ha
  Preemergence herbicidal rating CASOB: 0.0
CASOB (Sicklepod); rate 0.0625 kg/ha
  Preemergence herbicidal rating CASOB: 0.0
CASOB (Sicklepod); rate 0.1250 kg/ha
  Preemergence herbicidal rating CASOB: 0.0
CASOB (Sicklepod); rate 0.2500 kg/ha
  Preemergence herbicidal rating CASOB: 1.0
[5]; rate 0.0313 kg/ha
  Preemergence herbicidal rating IPOHE: 0.0
[5]; rate 0.0625 kg/ha
  Preemergence herbicidal rating IPOHE: 0.0
[5]; rate 0.1250 kg/ha
  Preemergence herbicidal rating IPOHE: 9.0
[5]; rate 0.2500 kg/ha
  Preemergence herbicidal rating IPOHE: 9.0
ECHCG (Barnyardgrass); rate 0.0313 kg/ha
  Preemergence herbicidal rating ECHCG: 0.0
ECHCG (Barnyardgrass); rate 0.0625 kg/ha
  Preemergence herbicidal rating ECHCG: 0.0
ECHCG (Barnyardgrass); rate 0.1250 kg/ha
  Preemergence herbicidal rating ECHCG: 1.0
ECHCG (Barnyardgrass); rate 0.2500 kg/ha
  Preemergence herbicidal rating ECHCG: 1.0
[6]; 0.0313 kg/ha
  Herbicidal rating ECHORC: 5.0
[6]; 0.0625 kg/ha
  Herbicidal rating ECHORC: 5.0
[6]; 0.1250 kg/ha
  Herbicidal rating ECHORC: 5.0
[6]; 0.2500 kg/ha
  Herbicidal rating ECHORC: 9.0
CYPSE (Flatsedge); 0.0313 kg/ha
  Herbicidal rating CYPSE: 0.0
CYPSE (Flatsedge); 0.0625 kg/ha
  Herbicidal rating CYPSE: 0.0
CYPSE (Flatsedge); 0.1250 kg/ha
  Herbicidal rating CYPSE: 0.0
CYPSE (Flatsedge); 0.2500 kg/ha
  Herbicidal rating CYPSE: 6.0
[7]; [12]
  Herbicidal rating ECHORC: 5.0
[7]; [13]
  Herbicidal rating ECHORC: 5.0
[7]; [14]
  Herbicidal rating ECHORC: 5.0
[7]; [15]
  Herbicidal rating ECHORC: 9.0
CYPIR (Rice Flatsedge); [12]
  Herbicidal rating CYPIR: 0.0
CYPIR (Rice Flatsedge); [13]
  Herbicidal rating CYPIR: 0.0
CYPIR (Rice Flatsedge); [14]
  Herbicidal rating CYPIR: 0.0
CYPIR (Rice Flatsedge); [15]
  Herbicidal rating CYPIR: 0.0
